Among the data in patent US10758534B2 (Vertex Pharmaceuticals Incorporated, priority 2014, dated 2020) are EC30 values, retold here.

The test addresses T1, F508del (Homo sapiens, UniProt P13569, DEL508-508).
T1 construct: expressed in transfected cells
In words: Protocol 2: FRET membrane potential optical assay (VIPR), identification of correction compounds. The test is classed as cell-based. An outline of the steps: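 Correction of the F508del trafficking defect is scored as forskolin (10 μM)/genistein (20 μM)-stimulated Cl^− efflux in NIH3T3 mouse fibroblasts after a 16 hr, 37° C. compound exposure. Depolarization was followed optically using voltage-sensing FRET dyes.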

[1] abbreviates: F508del CFTR modulator activity, compounds of Table 1, read-out: EC30.
[2] abbreviates: Table 3, compounds of Table 1 as modulators of CFTR activity, protocol not stated.

Read-outs that look alike come from different tables or passages of the source.

T1 sequence (P13569 with tags, fused parts or gaps DEL508-508): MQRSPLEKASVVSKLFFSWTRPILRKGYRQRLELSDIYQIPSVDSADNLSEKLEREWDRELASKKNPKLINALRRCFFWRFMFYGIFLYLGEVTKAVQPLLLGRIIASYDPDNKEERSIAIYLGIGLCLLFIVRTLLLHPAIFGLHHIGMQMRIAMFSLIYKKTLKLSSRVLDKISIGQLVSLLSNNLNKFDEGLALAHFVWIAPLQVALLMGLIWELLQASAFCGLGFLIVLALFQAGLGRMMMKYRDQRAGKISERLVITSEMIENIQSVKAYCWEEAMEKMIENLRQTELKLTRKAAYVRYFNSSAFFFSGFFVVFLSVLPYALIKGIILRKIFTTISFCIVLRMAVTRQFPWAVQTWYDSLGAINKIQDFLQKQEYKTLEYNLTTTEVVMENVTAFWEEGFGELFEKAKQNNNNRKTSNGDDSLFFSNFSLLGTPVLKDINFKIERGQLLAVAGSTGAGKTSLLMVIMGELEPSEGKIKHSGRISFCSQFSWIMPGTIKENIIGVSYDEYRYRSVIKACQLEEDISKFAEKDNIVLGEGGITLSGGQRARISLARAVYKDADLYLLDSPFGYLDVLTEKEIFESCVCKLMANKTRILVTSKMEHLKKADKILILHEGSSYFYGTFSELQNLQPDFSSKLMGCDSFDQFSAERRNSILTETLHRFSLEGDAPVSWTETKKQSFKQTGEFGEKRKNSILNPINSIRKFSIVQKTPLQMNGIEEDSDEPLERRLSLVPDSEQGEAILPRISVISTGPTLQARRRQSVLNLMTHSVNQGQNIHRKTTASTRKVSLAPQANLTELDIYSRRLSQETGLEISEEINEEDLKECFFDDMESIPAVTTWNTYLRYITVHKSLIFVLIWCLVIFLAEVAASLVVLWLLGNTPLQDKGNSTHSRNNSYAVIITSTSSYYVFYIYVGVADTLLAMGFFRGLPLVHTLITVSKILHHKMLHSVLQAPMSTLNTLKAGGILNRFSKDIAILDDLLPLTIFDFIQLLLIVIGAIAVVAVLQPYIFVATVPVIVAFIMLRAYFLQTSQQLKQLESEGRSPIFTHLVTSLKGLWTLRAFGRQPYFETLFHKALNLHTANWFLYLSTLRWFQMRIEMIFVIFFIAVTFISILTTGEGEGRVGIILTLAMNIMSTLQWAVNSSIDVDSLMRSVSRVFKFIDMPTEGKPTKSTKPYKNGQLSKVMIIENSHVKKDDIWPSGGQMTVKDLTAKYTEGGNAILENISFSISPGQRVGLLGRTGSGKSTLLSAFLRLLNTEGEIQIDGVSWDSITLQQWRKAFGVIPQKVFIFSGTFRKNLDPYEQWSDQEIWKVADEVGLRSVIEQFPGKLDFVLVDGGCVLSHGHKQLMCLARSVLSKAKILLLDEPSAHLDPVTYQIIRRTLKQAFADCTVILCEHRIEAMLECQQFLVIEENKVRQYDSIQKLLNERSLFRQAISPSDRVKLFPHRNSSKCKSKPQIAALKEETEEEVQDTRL

On to `CC1CN(c2ncccc2C(=O)NS(=O)(=O)c2cccc(Oc3ccccc3C(C)(C)C)n2)C(C)(C)C1` (centres unmarked) [Compound 2083, N—[[6-(2-tert-butylphenoxy)-2-pyridyl]sulfonyl]-2-(2,2,4-trimethylpyrrolidin-1-yl)pyridine-3-carboxamide], for which the EC30 under setting [1] is < 3000 nM.
As for `Cc1cccc(-c2cc(C(=O)NS(=O)(=O)c3ccccc3)n(Cc3c(C)cccc3C)n2)c1` [Compound 202, N-(benzenesulfonyl)-2-[(2,6-dimethylphenyl)methyl]-5-(m-tolyl)pyrazole-3-carboxamide], the EC30 entry under setting [2] is “+++ (“+++” means <3 uM)”.
Regarding `CC1CN(c2ncccc2C(=O)NS(=O)(=O)c2cccc(Oc3cc(Cl)cc(Cl)c3)n2)C(C)(C)C1` (centres unmarked) [Compound 2663, N—[[6-(3,5-dichlorophenoxy)-2-pyridyl]sulfonyl]-2-(2,2,4-trimethylpyrrolidin-1-yl)pyridine-3-carboxamide], under setting [1], the concentration for an effect of 30% (EC30) is < 3000 nM.
With `CC(C)(C)c1cc(C(=O)NS(=O)(=O)c2ccccc2)n(Cc2cc(F)ccc2C(F)(F)F)n1` [Compound 3, 3-(tert-butyl)-1-(5-fluoro-2-(trifluoromethyl)benzyl)-N-(phenylsulfonyl)-1H-pyrazole-5-carboxamide], the EC30 entry under setting [2] is on record as “+++ (“+++” means <3 uM)”.
`CC(C)COc1cc(F)cc(-c2ccc(C(=O)NS(=O)(=O)c3cccc(N)n3)c(N3CCCC(C)(C)CC3)n2)c1` [Compound 2171, N-[(6-amino-2-pyridyl)sulfonyl]-2-(4,4-dimethylazepan-1-yl)-6-(3-fluoro-5-isobutoxy-phenyl)pyridine-3-carboxamide]: the concentration for an effect of 30% (EC30) under setting [1] was < 3000 nM.
Regarding `Cc1cc(C)c(Oc2nc(-c3cccc4c3ccn4C)ccc2C(=O)NS(=O)(=O)c2cccc(N)n2)c(C)c1` [Compound 386, N-[(6-amino-2-pyridyl)sulfonyl]-6-(1-methylindol-4-yl)-2-(2,4,6-trimethylphenoxy)pyridine-3-carboxamide], the EC30 entry under setting [2] is reported as “+++ (“+++” means <3 uM)”.
`CC(C)OC(=O)Nc1cccc(S(=O)(=O)NC(=O)c2ccc(C3=CCCNC3)nc2N2C[C@@H](C)CC2(C)C)n1` [Compound 2624, isopropyl N—[6-[[6-(1,2,3,6-tetrahydropyridin-5-yl)-2-[(4S)-2,2,4-trimethylpyrrolidin-1-yl]pyridine-3-carbonyl]sulfamoyl]-2-pyridyl]carbamate]: the concentration for an effect of 30% (EC30) under setting [1] is 3000 to 10000 nM.
Take `Cc1cccc(S(=O)(=O)NC(=O)c2cc(C(C)(C)C)nn2Cc2c(C)cc(C)cc2C)c1` [Compound 80, 5-tert-butyl-N-(m-tolylsulfonyl)-2-[(2,4,6-trimethylphenyl)methyl]pyrazole-3-carboxamide]: the EC30 entry under setting [2] is reported as “+++ (“+++” means <3 uM)”.
`COc1ccc(-c2cc(C(=O)NS(=O)(=O)c3ccccc3)n(Cc3c(C)cccc3C)n2)c(OC)c1` [Compound 135, N-(benzenesulfonyl)-5-(2,4-dimethoxyphenyl)-2-[(2,6-dimethylphenyl)methyl]pyrazole-3-carboxamide]: the EC30 result under setting [2] was “+++ (“+++” means <3 uM)”.
On the same count and under the same terms, as for `COc1cccc(S(=O)(=O)NC(=O)c2ccc(C(C)(C)C)nc2Oc2c(C)cc(C)cc2C)c1` [Compound 56, 6-tert-butyl-N-(3-methoxyphenyl)sulfonyl-2-(2,4,6-trimethylphenoxy)pyridine-3-carboxamide], the entry is “+++ (“+++” means <3 uM)”; as for `Cc1cc(C)c(Cn2c(C(=O)NS(=O)(=O)c3ccncc3)cc3ccc(Cl)cc32)c(C)c1` [Compound 24, 6-chloro-N-(4-pyridylsulfonyl)-1-[(2,4,6-trimethylphenyl)methyl]indole-2-carboxamide], “++ (“++” means between 3 uM and 10 uM)”.
Turning to `COc1ccc(C)cc1-c1ccc(C(=O)NS(=O)(=O)c2ccc[nH]c2=O)c(N2C[C@@H](C)CC2(C)C)n1` [Compound 2530, 6-(2-methoxy-5-methyl-phenyl)-N-[(2-oxo-1H-pyridin-3-yl)sulfonyl]-2-[(4S)-2,2,4-trimethylpyrrolidin-1-yl]pyridine-3-carboxamide], the EC30 under setting [1] was < 3000 nM.
As to `COc1ccc(S(=O)(=O)NC(=O)c2ccc(C(C)(C)C)nc2-c2ccc(C)cc2)cc1` [Compound 206, 6-tert-butyl-N-(4-methoxyphenyl)sulfonyl-2-(p-tolyl)pyridine-3-carboxamide], under setting [2], the 30% effect concentration (EC30) result is listed as “+++ (“+++” means <3 uM)”.
Regarding `CCC1CCN(c2nc(-c3ccc(OC(C)C)nc3)ccc2C(=O)NS(=O)(=O)c2cccc(N)n2)CC1` [Compound 619, N-[(6-amino-2-pyridyl)sulfonyl]-2-(4-ethyl-1-piperidyl)-6-(6-isopropoxy-3-pyridyl)pyridine-3-carboxamide], under setting [2], the concentration for an effect of 30% (EC30) result is “+++ (“+++” means <3 uM)”.
As for `C[C@@H]1CN(c2nc(C(C)(C)C)c(C3=CCN(C(=O)Cc4ccccc4)CC3)cc2C(=O)NS(=O)(=O)c2cccc(N)n2)C(C)(C)C1` [Compound 2417, N-[(6-amino-2-pyridyl)sulfonyl]-6-tert-butyl-5-[1-(2-phenylacetyl)-3,6-dihydro-2H-pyridin-4-yl]-2-[(4S)-2,2,4-trimethylpyrrolidin-1-yl]pyridine-3-carboxamide], under setting [1], the concentration for an effect of 30% (EC30) was < 3000 nM.
For the molecule `CC(Oc1nc(N2C[C@@H](C)CC2(C)C)c(C(=O)NS(=O)(=O)c2cccc(N)n2)cc1F)c1ccncc1` (stereo partly drawn) [Compound 2212, N-[(6-amino-2-pyridyl)sulfonyl]-5-fluoro-6-[1-(4-pyridyl)ethoxy]-2-[(4S)-2,2,4-trimethylpyrrolidin-1-yl]pyridine-3-carboxamide], the EC30 under setting [1] is 3000 to 10000 nM.
Consider `Cc1ccc(-c2ccc(C(=O)NS(=O)(=O)c3ccc[nH]c3=O)c(N3C[C@@H](C)CC3(C)C)n2)cc1C` [Compound 2154, 6-(3,4-dimethylphenyl)-N-[(2-oxo-1H-pyridin-3-yl)sulfonyl]-2-[(4S)-2,2,4-trimethylpyrrolidin-1-yl]pyridine-3-carboxamide], for which the EC30 under setting [1] was < 3000 nM.
Still for that read-out and setting: as for `C[C@@H]1CN(c2nc(C3=CCCN(C(=O)NC(C)(C)C)C3)ccc2C(=O)NS(=O)(=O)c2cccc(N)n2)C(C)(C)C1` [Compound 2568, N-[(6-amino-2-pyridyl)sulfonyl]-6-[1-(tert-butylcarbamoyl)-3,6-dihydro-2H-pyridin-5-yl]-2-[(4S)-2,2,4-trimethylpyrrolidin-1-yl]pyridine-3-carboxamide], the figure is 3000 to 10000 nM.
On to `CC1CN(c2nc(-c3ccncc3)ccc2C(=O)NS(=O)(=O)c2cccc(N)n2)C(C)(C)C1` (centres unmarked) [Compound 643, N-[(6-amino-2-pyridyl)sulfonyl]-6-(4-pyridyl)-2-(2,2,4-trimethylpyrrolidin-1-yl)pyridine-3-carboxamide], for which, under setting [2], the 30% effect concentration (EC30) entry was “++ (“++” means between 3 uM and 10 uM)”.
As to `C[C@@H]1CN(c2nc(-c3cccc(F)c3)ccc2C(=O)NS(=O)(=O)c2cccc(N)n2)C(C)(C)C1` [Compound 2566, N-[(6-amino-2-pyridyl)sulfonyl]-6-(3-fluorophenyl)-2-[(4S)-2,2,4-trimethylpyrrolidin-1-yl]pyridine-3-carboxamide], under setting [1], the EC30 is < 3000 nM.
With `CC1CCC(Oc2cccc(S(=O)(=O)NC(=O)c3cccnc3N3CC(C)CC3(C)C)n2)CC1` (centres unmarked) [Compound 2336, N—[[6-(4-methylcyclohexoxy)-2-pyridyl]sulfonyl]-2-(2,2,4-trimethylpyrrolidin-1-yl)pyridine-3-carboxamide], the EC30 under setting [1] is < 3000 nM.
As to `CCCOc1cc(-c2ccc(C(=O)NS(=O)(=O)c3cccc(N)n3)c(N3CCC(C)CC3)n2)ccc1Cl` [Compound 692, N-[(6-amino-2-pyridyl)sulfonyl]-6-(4-chloro-3-propoxy-phenyl)-2-(4-methyl-1-piperidyl)pyridine-3-carboxamide], the EC30 entry under setting [2] is recorded as “+++ (“+++” means <3 uM)”.
Take `Cc1cc(C)c(Oc2nc(C3(C(F)(F)F)CC3)ccc2C(=O)NS(=O)(=O)c2cccc(N)n2)c(C)c1` [Compound 621, N-[(6-amino-2-pyridyl)sulfonyl]-6-[1-(trifluoromethyl)cyclopropyl]-2-(2,4,6-trimethylphenoxy)pyridine-3-carboxamide]: under setting [2], the 30% effect concentration (EC30) result is given as “+++ (“+++” means <3 uM)”.
The same measure, in the same setting: then `CC(C)Oc1ccc(-c2ccc(C(=O)NS(=O)(=O)c3cccc(N)n3)c(N3CCCC(CC(F)(F)F)C3)n2)cn1` (centres unmarked) [Compound 656, N-[(6-amino-2-pyridyl)sulfonyl]-6-(6-isopropoxy-3-pyridyl)-2-[3-(2,2,2-trifluoroethyl)-1-piperidyl]pyridine-3-carboxamide], with “+++ (“+++” means <3 uM)”.
In the case of `C/C=C/COc1cccc(S(=O)(=O)NC(=O)c2ccc(C(C)(C)C)nc2N2CC(C)CC2(C)C)n1` (centres unmarked) [Compound 2715], the concentration for an effect of 30% (EC30) under setting [1] is < 3000 nM.
On to `CC(C)COc1cc(F)cc(-c2ccc(C(=O)NS(=O)(=O)c3ccn[nH]3)c(N3CCCC(c4ccccn4)C3)n2)c1` (centres unmarked) [Compound 677, 6-(3-fluoro-5-isobutoxy-phenyl)-N-(1H-pyrazol-5-ylsulfonyl)-2-[3-(2-pyridyl)-1-piperidyl]pyridine-3-carboxamide], for which, under setting [2], the EC30 result is “++ (“++” means between 3 uM and 10 uM)”.
Take `Cc1cc(C)c(Cn2cc(C(C)(C)C)nc2C(=O)NS(=O)(=O)c2cccc(N)c2)c(C)c1` [Compound 255, N-(3-aminophenyl)sulfonyl-4-tert-butyl-1-[(2,4,6-trimethylphenyl)methyl]imidazole-2-carboxamide]: the EC30 entry under setting [2] is listed as “+++ (“+++” means <3 uM)”.
For `CC1CN(c2ncccc2C(=O)NS(=O)(=O)c2cccc(OCC3COc4ccccc4O3)n2)C(C)(C)C1` (centres unmarked) [Compound 2115, N—[[6-(2,3-dihydro-1,4-benzodioxin-3-ylmethoxy)-2-pyridyl]sulfonyl]-2-(2,2,4-trimethylpyrrolidin-1-yl)pyridine-3-carboxamide], under setting [1], the EC30 was < 3000 nM.
Consider `C[C@@H]1CN(c2nc(N3CCOC(C)(C)C3)c(F)cc2C(=O)NS(=O)(=O)c2cccc(N)n2)C(C)(C)C1` [Compound 2586, N-[(6-amino-2-pyridyl)sulfonyl]-6-(2,2-dimethylmorpholin-4-yl)-5-fluoro-2-[(4S)-2,2,4-trimethylpyrrolidin-1-yl]pyridine-3-carboxamide], for which, under setting [1], the EC30 fell in the range of 3000 to 10000 nM.

For orientation: EC30 means the concentration at which the effect reaches the 30% level.
